Assay results from patent publication US11230543B2, “Biaryl monobactam compounds and methods of use thereof for the treatment of bacterial infections” (priority 2015, dated 2022).
Counter-ions that a name gives are not always drawn.

How the values were obtained:
[1] = tested on: Klebsiella pneumoniae expressing KPC-1 (CL6569); experiment: Antibiotic activity: growth inhibitory concentration (OD600), Klebsiella pneumoniae CL6569; format: cell-based; settings: lowest concentration inhibiting 95% of bacterial growth; in the presence of β lactamase inhibitor Relebactam 4 μg/mL; 35±2° C. for 22 hours; tested range 100 μM to 0.098 μM
How it was run: (§1)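 Growth inhibition by OD600 after 22 hours incubation at 35±2° C, reported as lowest concentration inhibiting 95% of growth (MITC95). Final compound range 100 μM to 0.098 μM, always combined with β-lactamase inhibitor relebactam (4 μg/mL final); inoculum ~2×10^5 CFU/mL in cation-adjusted Mueller-Hinton II broth.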

[2] = tested on: Pseudomonas aeruginosa expressing AmpC (CL5701); experiment: Antibiotic activity: growth inhibitory concentration (OD600), Pseudomonas aeruginosa CL5701; format: cell-based; settings: lowest concentration inhibiting 95% of bacterial growth; in the presence of β lactamase inhibitor Relebactam 4 μg/mL; 35±2° C. for 22 hours; tested range 100 μM to 0.098 μM
How it was run: as §1

## CC1(C)[C@H](NC(=O)/C(=N\O[C@@H](COc2ccc(-n3cc[n+](CCCN)c3)nc2)C(=O)O)c2csc(N)n2)C(=O)N1OS(=O)(=O)[O-] [Example 112, (S)-3-((Z)-2-(((S)-2-((6-(3-(3-aminopropyl)-1H-imidazol-3-ium-1-yl)pyridin-3-yl)oxy)-1-carboxyethoxy)imino)-2-(2-aminothiazol-4-yl)acetamido)-2,2-dimethyl-4-oxoazetidin-1-yl sulfate]
[1]
  KP_CL6569 MITC95: 0.7813 µM
[2]
  PA_CL5701 MITC95: 10.42 µM

## CC(CN)Nc1ccc(-c2ccc(OC[C@H](O/N=C(\C(=O)N[C@@H]3C(=O)N(OS(=O)(=O)[O-])C3(C)C)c3csc(N)n3)C(=O)O)cc2)c[n+]1C (stereo partly drawn) [Example 76, (3S)-3-((Z)-2-(((1S)-2-(4-(6-((1-aminopropan-2-yl)amino)-1-methylpyridin-1-ium-3-yl)phenoxy)-1-carboxyethoxy)imino)-2-(2-aminothiazol-4-yl)acetamido)-2,2-dimethyl-4-oxoazetidin-1-yl sulfate]
[1]
  KP_CL6569 MITC95: 0.1953 µM
[2]
  PA_CL5701 MITC95: 3.125 µM

## C[n+]1nc(-c2ccc(OC[C@H](O/N=C(\C(=O)N[C@@H]3C(=O)N(OS(=O)(=O)[O-])C3(C)C)c3csc(N)n3)C(=O)O)cc2)ccc1NCCCN [Example 123, (S)-3-((Z)-2-(((S)-2-(4-(6-((3-aminopropyl)amino)-1-methylpyridazin-1-ium-3-yl)phenoxy)-1-carboxyethoxy)imino)-2-(2-aminothiazol-4-yl)acetamido)-2,2-dimethyl-4-oxoazetidin-1-yl sulfate]
[1]
  KP_CL6569 MITC95: 0.3906 µM
[2]
  PA_CL5701 MITC95: 12.5 µM

## CC1(C)[C@H](NC(=O)/C(=N\O[C@@H](COc2ccc(-c3cn(CCCN)[n+](CC4CNC4)c3)cc2)C(=O)O)c2csc(N)n2)C(=O)N1OS(=O)(=O)[O-] [Example 97, (S)-3-((Z)-2-(((S)-2-(4-(1-(3-aminopropyl)-2-(azetidin-3-ylmethyl)-1H-pyrazol-2-ium-4-yl)phenoxy)-1-carboxyethoxy)imino)-2-(2-aminothiazol-4-yl)acetamido)-2,2-dimethyl-4-oxoazetidin-1-yl sulfate]
[1]
  KP_CL6569 MITC95: 0.125 µM
[2]
  PA_CL5701 MITC95: 1.781 µM

## CC1(C)[C@H](NC(=O)/C(=N\OCCOc2ccc(-n3cc[n+](CCCN)c3)nc2)c2csc(N)n2)C(=O)N1OS(=O)(=O)[O-] [Example 35, (S,Z)-3-(2-((2-((6-(3-(3-aminopropyl)-1H-imidazol-3-ium-1-yl)pyridin-3-yl)oxy)ethoxy)imino)-2-(2-aminothiazol-4-yl)acetamido)-2,2-dimethyl-4-oxoazetidin-1-yl sulfate 2,2,2-trifluoroacetate]
[1]
  KP_CL6569 MITC95: 1.281 µM
[2]
  PA_CL5701 MITC95: 50 µM

## CC1(C)[C@H](NC(=O)/C(=N\O[C@@H](COc2ccc(Nc3cc[n+](CC4CNC4)cc3)nc2)C(=O)O)c2csc(N)n2)C(=O)N1OS(=O)(=O)[O-] [Example 108, (S)-3-((Z)-2-(2-aminothiazol-4-yl)-2-(((S)-2-((6-((1-(azetidin-3-ylmethyl)pyridin-1-ium-4-yl)amino)pyridin-3-yl)oxy)-1-carboxyethoxy)imino)acetamido)-2,2-dimethyl-4-oxoazetidin-1-yl sulfate]
[1]
  KP_CL6569 MITC95: 0.7813 µM
[2]
  PA_CL5701 MITC95: 12.5 µM

## CC1(C)[C@H](NC(=O)/C(=N\O[C@@H](COc2ccc(Oc3cc[n+](CCCN)cc3)nc2)C(=O)O)c2csc(N)n2)C(=O)N1OS(=O)(=O)O.O=C([O-])C(F)(F)F [Example 34, 1-(3-aminopropyl)-4-((5-((S)-2-((((Z)-1-(2-aminothiazol-4-yl)-2-(((S)-2,2-dimethyl-4-oxo-1-(sulfooxy)azetidin-3-yl)amino)-2-oxoethylidene)amino)oxy)-2-carboxyethoxy)pyridin-2-yl)oxy)pyridin-1-ium 2,2,2-trifluoroacetate]
[1]
  KP_CL6569 MITC95: 0.78 µM
[2]
  PA_CL5701 MITC95: 25 µM

## C[n+]1cc(-c2ccc(OC[C@H](O/N=C(\C(=O)N[C@@H]3C(=O)N(OS(=O)(=O)[O-])C3(C)C)c3nsc(N)n3)C(=O)O)cc2)cn1CCCN [Example 12, (S)-3-((Z)-2-(5-Amino-1,2,4-thiadiazol-3-yl)-2-(((S)-2-(4-(1-(3-aminopropyl)-2-methyl-1H-pyrazol-2-ium-4-yl)phenoxy)-1-carboxyethoxy)imino)acetamido)-2,2-dimethyl-4-oxoazetidin-1-yl sulfate]
[1]
  KP_CL6569 MITC95: 0.3906 µM
[2]
  PA_CL5701 MITC95: 3.125 µM

## CC1(C)[C@H](NC(=O)/C(=N\OC(COc2ccc(C(N)CNC3=NCCN3)cc2)C(=O)O)c2csc(N)n2)C(=O)N1OS(=O)(=O)O (stereo in doubt) [Example 59, (R)-3-(4-((S)-1-amino-2-((4,5-dihydro-1H-imidazol-2-yl)amino)ethyl)phenoxy)-2-((((Z)-1-(2-aminothiazol-4-yl)-2-(((S)-2,2-dimethyl-4-oxo-1-(sulfooxy)azetidin-3-yl)amino)-2-oxoethylidene)amino)oxy)propanoic acid]
[1]
  KP_CL6569 MITC95: 3.125 µM
[2]
  PA_CL5701 MITC95: 12.5 µM

## C[n+]1cc(NCCN)ccc1-c1ccc(OC[C@H](O/N=C(\C(=O)N[C@@H]2C(=O)N(OS(=O)(=O)[O-])C2(C)C)c2csc(N)n2)C(=O)O)cc1 [Example 72, (S)-3-((Z)-2-(((S)-2-(4-(5-((2-aminoethyl)amino)-1-methylpyridin-1-ium-2-yl)phenoxy)-1-carboxyethoxy)imino)-2-(2-aminothiazol-4-yl)acetamido)-2,2-dimethyl-4-oxoazetidin-1-yl sulfate]
[1]
  KP_CL6569 MITC95: 0.3906 µM
[2]
  PA_CL5701 MITC95: 6.25 µM

## C[n+]1cc(-c2ccc(OC(CO/N=C(\C(=O)N[C@@H]3C(=O)N(OS(=O)(=O)[O-])C3(C)C)c3csc(N)n3)C(=O)O)cc2)cn1CCCN (stereo partly drawn) [Example 84, (3S)-3-((2-(4-(1-(3-aminopropyl)-2-methyl-1H-pyrazol-2-ium-4-yl)phenoxy)-2-carboxyethoxy)imino)-2-(2-aminothiazol-4-yl)acetamido)-2,2-dimethyl-4-oxoazetidin-1-yl sulfate]
[1]
  KP_CL6569 MITC95: 2.5 µM
[2]
  PA_CL5701 MITC95: 40 µM

## CC1(C)[C@H](NC(=O)/C(=N\O[C@@](C)(COc2ccc(C3CN=C(NCCN)NC3)cc2)C(=O)O)c2csc(N)n2)C(=O)N1OS(=O)(=O)O (stereo partly drawn) [Example 95, (2S)-3-(4-(2-((2-aminoethyl)amino)-1,4,5,6-tetrahydropyrimidin-5-yl)phenoxy)-2-((((Z)-1-(2-aminothiazol-4-yl)-2-(((S)-2,2-dimethyl-4-oxo-1-(sulfooxy)azetidin-3-yl)amino)-2-oxoethylidene)amino)oxy)-2-methylpropanoic acid]
[1]
  KP_CL6569 MITC95: 0.3906 µM
[2]
  PA_CL5701 MITC95: 3.125 µM

## Cn1c(-c2ccc(OC[C@](C)(O/N=C(\C(=O)N[C@@H]3C(=O)N(OS(=O)(=O)O)C3(C)C)c3csc(N)n3)C(=O)O)cc2)cn(CCCN)c1=N [Example 107, (S)-3-((Z)-2-((((S)-1-(4-(1-(3-aminopropyl)-2-imino-3-methyl-2,3-dihydro-1H-imidazol-4-yl)phenoxy)-2-carboxypropan-2-yl)oxy)imino)-2-(2-aminothiazol-4-yl)acetamido)-2,2-dimethyl-4-oxoazetidin-1-yl sulfate]
[1]
  KP_CL6569 MITC95: 6.25 µM
[2]
  PA_CL5701 MITC95: 50 µM

## C[C@H]1[C@H](NC(=O)/C(=N\O[C@@H](COc2ccc(-c3cn(CCCN)[n+](C)c3)cc2)c2nn[nH]n2)c2csc(N)n2)C(=O)N1S(=O)(=O)O.O=C([O-])C(F)(F)F [Example 30, 1-(3-aminopropyl)-4-(4-((R)-2-((((Z)-1-(2-aminothiazol-4-yl)-2-(((2S,3S)-2-methyl-4-oxo-1-sulfoazetidin-3-yl)amino)-2-oxoethylidene)amino)oxy)-2-(2H-tetrazol-5-yl)ethoxy)phenyl)-2-methyl-1H-pyrazol-2-ium 2,2,2-trifluoroacetate]
[1]
  KP_CL6569 MITC95: 3.125 µM
[2]
  PA_CL5701 MITC95: 6.25 µM

## C[n+]1cc(-c2ccc(OC[C@H](O/N=C(\C(=O)N[C@@H]3C(=O)N(OS(=O)(=O)[O-])C3(C)C)c3csc(N)n3)C(=O)O)cc2)cn1CC1CNC1 [Example 16, (S)-3-((Z)-2-(2-aminothiazol-4-yl)-2-(((S)-2-(4-(1-(azetidin-3-ylmethyl)-2-methyl-1H-pyrazol-2-ium-4-yl)phenoxy)-1-carboxy-ethoxy)imino)acetamido)-2,2-dimethyl-4-oxoazetidin-1-yl sulfate]
[1]
  KP_CL6569 MITC95: 0.3906 µM
[2]
  PA_CL5701 MITC95: 3.125 µM

## CC1(C)[C@H](NC(=O)/C(=N\O[C@@H](COc2ccc(-c3cn(CCCN)nc3N)cc2)C(=O)O)c2csc(N)n2)C(=O)N1OS(=O)(=O)O [Example 27, (S)-3-(4-(3-amino-1-(3-aminopropyl)-1H-pyrazol-4-yl)phenoxy)-2-((((Z)-1-(2-aminothiazol-4-yl)-2-(((S)-2,2-dimethyl-4-oxo-1-(sulfooxy)azetidin-3-yl)amino)-2-oxoethylidene)amino)oxy)propanoic acid]
[1]
  KP_CL6569 MITC95: 0.7813 µM
[2]
  PA_CL5701 MITC95: 6.25 µM

## CC1(C)[C@H](NC(=O)/C(=N\O[C@@H](COc2ccc(-c3cnn(CC[N+]4(C)CCOCC4)c3)cc2)C(=O)O)c2csc(N)n2)C(=O)N1OS(=O)(=O)O.O=C([O-])C(F)(F)F [Example 14, 4-(2-(4-(4-((S)-2-((((Z)-1-(2-aminothiazol-4-yl)-2-(((S)-2,2-dimethyl-4-oxo-1-(sulfooxy)azetidin-3-yl)amino)-2-oxoethylidene)amino)oxy)-2-carboxyethoxy)phenyl)-1H-pyrazol-1-yl)ethyl)-4-methylmorpholin-4-ium 2,2,2-trifluoroacetate]
[1]
  KP_CL6569 MITC95: 0.7813 µM
[2]
  PA_CL5701 MITC95: 12.5 µM
